This is an account of results in patent publication US9662327B2 (AGIOS PHARMACEUTICALS, INC, priority 2011, dated 2017).

Where only a bound is given, the exact number is not on record here.

IDH1 R132H, sequence (O75874 whole entry R132H): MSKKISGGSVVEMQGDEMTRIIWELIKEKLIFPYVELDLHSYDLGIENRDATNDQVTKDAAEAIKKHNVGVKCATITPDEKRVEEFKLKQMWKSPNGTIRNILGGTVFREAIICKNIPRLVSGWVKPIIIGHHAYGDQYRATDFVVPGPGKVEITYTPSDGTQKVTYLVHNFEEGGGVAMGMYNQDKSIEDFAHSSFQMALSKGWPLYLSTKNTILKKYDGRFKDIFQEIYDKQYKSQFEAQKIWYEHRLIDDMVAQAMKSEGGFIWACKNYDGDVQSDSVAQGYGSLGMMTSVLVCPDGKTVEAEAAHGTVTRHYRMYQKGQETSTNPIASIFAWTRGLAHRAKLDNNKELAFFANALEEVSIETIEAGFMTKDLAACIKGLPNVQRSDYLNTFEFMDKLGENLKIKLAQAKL

The first assay addresses IDH1 R132H (Homo sapiens (Human), UniProt O75874, R132H). Put plainly: Assays for IDH1 R132H Inhibitors (NADPH/aKG, resazurin detection). To be noted: IDH1 R132H enzyme, Table 2; read-out: IDHR132H Activity. The assay is classed as biochemical. The method, boiled down: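 Substrate mix held 8 uM NADPH plus 2 mM aKG; buffer was 20 mM Tris pH 7.5 with 150 mM NaCl, 10 mM MgCl2, 0.03% BSA. After 50 min room-temperature reaction, NADPH remaining was detected with 30 μM resazurin mix over 5 min.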
Turning to `CC(C)c1nc(N2CCN(C(=O)Nc3ccc(F)cc3)CC2)c(C#N)c2c1COCC2` [Compound 102, 4-(5-cyano-8-isopropyl-3,4-dihydro-1H-pyrano[3,4-c]pyridin-6-yl)-N-(4-fluorophenyl)piperazine-1-carboxamide], the IC50 lay within 1000 to 10000 nM.

For the compound `CC(C)c1nc(N2CCN(C(=O)c3ccc(Cl)cc3Cl)[C@H](C)C2)c(C#N)c2c1COC(C)(C)C2` [Compound 166, (R)-6-(4-(2,4-dichlorobenzoyl)-3-methylpiperazin-1-yl)-8-isopropyl-3,3-dimethyl-3,4-dihydro-1H-pyrano[3,4-c]pyridine-5-carbonitrile], the IC50 was in the range of 1000 to 10000 nM.

Turning to `CC(C)[C@@H]1CN(c2nc(C3CC3)c3c(c2C#N)CC(C)(C)OC3)CCN1C(=O)N(C)C` [Compound 351], the IC50 lay in the range of 1000 to 10000 nM.

Turning to `N#Cc1c(N2CCN(C(=O)c3ccco3)CC2)nc(C2CCCCC2)c2c1CCOC2` [Compound 110, 8-cyclohexyl-6-(4-(furan-2-carbonyl)piperazin-1-yl)-3,4-dihydro-1H-pyrano[3,4-c]pyridine-5-carbonitrile], the IC50 was 1000 to 10000 nM.

`CC(C)c1nc(N2CCN(C(=O)c3ccco3)CC2)c(C#N)c2c1CC(C)(C)CC2` [Compound 116, 3-(4-(furan-2-carbonyl)piperazin-1-yl)-1-isopropyl-7,7-dimethyl-5,6,7,8-tetrahydroisoquinoline-4-carbonitrile]: the IC50 fell in the range of 1000 to 10000 nM.

On to `CCOC(=O)C1CN(c2nc(C(C)C)c3c(c2C#N)CC(C)(C)OC3)CCN1C(=O)c1ccco1` (stereo not shown) [Compound 298, ethyl 4-(5-cyano-8-isopropyl-3,3-dimethyl-3,4-dihydro-1H-pyrano[3,4-c]pyridin-6-yl)-1-(furan-2-carbonyl)piperazine-2-carboxylate], for which the IC50 lay within 1000 to 10000 nM.

Consider `CC(C)[C@@H]1CN(c2nc(C3CC3)c3c(c2C#N)CC(C)(C)OC3)CCN1C(=O)NCC1CC1` [Compound 365], for which the IC50 lay in the range of 1000 to 10000 nM.

In the case of `CC(C)c1nc(N2CCN(C(=O)Cc3cccs3)[C@H](C(C)C)C2)c(C#N)c2c1COC(C)(C)C2` [Compound 195, (R)-8-isopropyl-6-(3-isopropyl-4-(2-(thiophen-2-yl)acetyl)piperazin-1-yl)-3,3-dimethyl-3,4-dihydro-1H-pyrano[3,4-c]pyridine-5-carbonitrile], the IC50 is less than 500 nM.

For the compound `C[C@@H]1CN(c2nc(C3CCCCC3)c3c(c2C#N)CCOC3)CCN1C(=O)NC1CC1` [Compound 360, (R)-4-(5-cyano-8-cyclohexyl-3,4-dihydro-1H-pyrano[3,4-c]pyridin-6-yl)-N-cyclopropyl-2-methylpiperazine-1-carboxamide], the IC50 was 1000 to 10000 nM.

Regarding `COCCC(=O)N1[C@H](C)CN(c2nc(C3CC3)c3c(c2C#N)CC(C)(C)OC3)C[C@@H]1C` [Compound 356], the IC50 lay in the range of 1000 to 10000 nM.

Turning to `CC(C)[C@@H]1CN(c2nc(C3CC3)c3c(c2C#N)CC(C)(C)OC3)CCN1C(=O)COCCO` [Compound 348], the IC50 lay in the range of 1000 to 10000 nM.

As to `CCc1nc(N2CCN(C(=O)c3ccoc3)[C@H](C(C)C)C2)c(C#N)c2c1COC(C)(C)C2` [Compound 414, (R)-8-ethyl-6-(4-(furan-3-carbonyl)-3-isopropylpiperazin-1-yl)-3,3-dimethyl-3,4-dihydro-1H-pyrano[3,4-c]pyridine-5-carbonitrile], the IC50 lay within 1000 to 10000 nM.

For the compound `CCS(=O)(=O)N1CCN(c2nc(C3CC3)c3c(c2C#N)CC(C)(C)OC3)C[C@H]1C(C)C` [Compound 391, (R)-8-cyclopropyl-6-(4-(ethylsulfonyl)-3-isopropylpiperazin-1-yl)-3,3-dimethyl-3,4-dihydro-1H-pyrano[3,4-c]pyridine-5-carbonitrile], the IC50 lay in the range of 1000 to 10000 nM.

Take `C[C@@H]1CN(C(=O)c2ccco2)CCN1c1nc(C2CC2)c2c(c1C#N)CC(C)(C)OC2` [Compound 204, (R)-8-cyclopropyl-6-(4-(furan-2-carbonyl)-2-methylpiperazin-1-yl)-3,3-dimethyl-3,4-dihydro-1H-pyrano[3,4-c]pyridine-5-carbonitrile]: the IC50 lay in the range of 1000 to 10000 nM.

Regarding `C[C@@H]1CN(c2nc(C3CCCCC3)c3c(c2C#N)CCOC3)CCN1C(=O)c1ccsc1` [Compound 242, (R)-8-cyclohexyl-6-(3-methyl-4-(thiophene-3-carbonyl)piperazin-1-yl)-3,4-dihydro-1H-pyrano[3,4-c]pyridine-5-carbonitrile], the IC50 was 1000 to 10000 nM.

On to `CC1(C)Cc2c(C#N)c(N3CCN(C(=O)c4ccoc4)C(C)(C)C3)nc(C3CC3)c2CO1` [Compound 318, 8-cyclopropyl-6-(4-(furan-3-carbonyl)-3,3-dimethylpiperazin-1-yl)-3,3-dimethyl-3,4-dihydro-1H-pyrano[3,4-c]pyridine-5-carbonitrile], for which the IC50 was 1000 to 10000 nM.

With `CNC(=O)N1CCN(c2nc(C3CCCCC3)c3c(c2C#N)CCOC3)C[C@H]1C` [Compound 357, (R)-4-(5-cyano-8-cyclohexyl-3,4-dihydro-1H-pyrano[3,4-c]pyridin-6-yl)-N,2-dimethylpiperazine-1-carboxamide], the IC50 is 1000 to 10000 nM.

`CCC1CN(c2nc(C(C)C)c3c(c2C#N)CC(C)(C)OC3)CCN1C(=O)c1ccoc1` (stereo not shown) [Compound 172, 6-(3-ethyl-4-(furan-3-carbonyl)piperazin-1-yl)-8-isopropyl-3,3-dimethyl-3,4-dihydro-1H-pyrano[3,4-c]pyridine-5-carbonitrile]: the IC50 fell in the range of 1000 to 10000 nM.

Take `CC(C)[C@@H]1CN(c2nc(C3CC3)c3c(c2C#N)CC(C)(C)OC3)CCN1C(=O)c1cnn2cccnc12` [Compound 232, (R)-8-cyclopropyl-6-(3-isopropyl-4-(pyrazolo[1,5-a]pyrimidine-3-carbonyl)piperazin-1-yl)-3,3-dimethyl-3,4-dihydro-1H-pyrano[3,4-c]pyridine-5-carbonitrile]: the IC50 lay within 1000 to 10000 nM.

As to `CC(C)[C@@H]1CN(c2nc(C3CC3)c3c(c2C#N)CC(C)(C)OC3)CCN1C(=O)C1CCOCC1` [Compound 305], the IC50 was 1000 to 10000 nM.

On to `CC(C)[C@@H]1CN(c2nc(C3CC3)c3c(c2C#N)CC(C)(C)OC3)CCN1C(=O)NC1CC1` [Compound 398, (R)-4-(5-cyano-8-cyclopropyl-3,3-dimethyl-3,4-dihydro-1H-pyrano[3,4-c]pyridin-6-yl)-N-cyclopropyl-2-isopropylpiperazine-1-carboxamide], for which the IC50 fell in the range of 1000 to 10000 nM.

In the case of `CCCCCNC(=O)N1CCN(c2nc(C3CC3)c3c(c2C#N)CC(C)(C)OC3)C[C@H]1C(C)C` [Compound 327], the IC50 was 1000 to 10000 nM.

For the compound `C[C@@H]1CN(c2nc(C3CC3)c3c(c2C#N)CC(C)(C)OC3)CCN1C(=O)c1ccoc1` [Compound 164], the IC50 is 500 to 1000 nM.

`CC(C)c1nc(N2CCN(C(=O)Cc3cccnc3)[C@H](C)C2)c(C#N)c2c1COC(C)(C)C2` [Compound 248, (R)-8-isopropyl-3,3-dimethyl-6-(3-methyl-4-(2-(pyridin-3-yl)acetyl)piperazin-1-yl)-3,4-dihydro-1H-pyrano[3,4-c]pyridine-5-carbonitrile]: the IC50 fell in the range of 1000 to 10000 nM.

Regarding `CC(C)[C@@H]1CN(c2nc(C3CC3)c3c(c2C#N)CC(C)(C)OC3)CCN1C(=O)Cn1ccnn1` [Compound 408, (R)-6-(4-(2-(1H-1,2,3-triazol-1-yl)acetyl)-3-isopropylpiperazin-1-yl)-8-cyclopropyl-3,3-dimethyl-3,4-dihydro-1H-pyrano[3,4-c]pyridine-5-carbonitrile], the IC50 lay in the range of 1000 to 10000 nM.

For the compound `CC(C)NC(=O)N1CCN(c2nc(C3CC3)c3c(c2C#N)CC(C)(C)OC3)C[C@H]1C(C)C` [Compound 287], the IC50 fell in the range of 1000 to 10000 nM.

With `CCOC(=O)C1CN(c2nc(C(C)C)c3c(c2C#N)CC(C)(C)OC3)CCN1C(=O)OC` (stereo not shown) [Compound 333, 2-ethyl 1-methyl 4-(5-cyano-8-isopropyl-3,3-dimethyl-3,4-dihydro-1H-pyrano[3,4-c]pyridine-6-yl)piperazine-1,2-dicarboxylate], the IC50 lay within 1000 to 10000 nM.

As for `N#Cc1c(N2CCN(C(=O)Cc3ccccc3)CC2)nc(C2CCCCC2)c2c1CCOC2` [Compound 131, 8-cyclohexyl-6-(4-(2-phenylacetyl)piperazin-1-yl)-3,4-dihydro-1H-pyrano[3,4-c]pyridine-5-carbonitrile], the IC50 is 1000 to 10000 nM.

Regarding `CCCNC(=O)N1CCN(c2nc(C3CC3)c3c(c2C#N)CC(C)(C)OC3)C[C@H]1C(C)C` [Compound 350, (R)-4-(5-cyano-8-cyclopropyl-3,3-dimethyl-3,4-dihydro-1H-pyrano[3,4-c]pyridin-6-yl)-2-isopropyl-N-propylpiperazine-1-carboxamide], the IC50 was 1000 to 10000 nM.

As to `Cc1ccc(NC(=O)N2CCN(c3nc(C4CCCCC4)c4c(c3C#N)CCOC4)C[C@H]2C)cc1` [Compound 280, (R)-4-(5-cyano-8-cyclohexyl-3,4-dihydro-1H-pyrano[3,4-c]pyridin-6-yl)-2-methyl-N-p-tolylpiperazine-1-carboxamide], the IC50 was 1000 to 10000 nM.

Turning to `CC(C)c1nc(N2CCN(C(=O)c3c[nH]c4ccccc34)CC2)c(C#N)c2c1COCC2` [Compound 104, 6-(4-(1H-indole-3-carbonyl)piperazin-1-yl)-8-isopropyl-3,4-dihydro-1H-pyrano[3,4-c]pyridine-5-carbonitrile], the IC50 lay in the range of 1000 to 10000 nM.

Consider `Cc1occc1C(=O)N1CCN(c2nc(C3CC3)c3c(c2C#N)CC(C)(C)OC3)C[C@H]1C(C)C` [Compound 181], for which the IC50 is less than 500 nM.

With `CC1CN(c2nc(C3CC3)c3c(c2C#N)CC(C)(C)OC3)CCN1C(=O)c1ccoc1` (stereo not shown) [Compound 136], the IC50 lay within 1000 to 10000 nM.

The assay is the same for the next values; noted with them: IDH1 R132H enzyme, Table 3; read-out: R132H IC50.
Take `COCCC(=O)N1CCN(c2nc(C3CC3)c3c(c2C#N)CCN(C(C)=O)C3)C[C@H]1C1CC1` [Compound 478, (R)-7-acetyl-1-cyclopropyl-3-(3-cyclopropyl-4-(3-methoxypropanoyl)piperazin-1-yl)-5,6,7,8-tetrahydro-2,7-naphthyridine-4-carbonitrile]: the IC50 is less than 500 nM.
